The assay addresses Pol theta (1-899) (Homo sapiens (Human), UniProt O75417). The assay can be described thus: Pol theta ATPase activity, NADH oxidation-coupled enzymatic assay. The format is biochemical. The settings on record: Pol theta (1-899) 10 nM, ATP, dT50 ssDNA, absorbance 340 nm, 10-point dilution series; read-out: ATPase NADH coupling:Standard Screening:hPolQ IC50. Put shortly: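 Pol theta (1-899), 10 nM, preincubated 15 min at RT with 10-point compound series in Tris pH 7.80/KCl/MgCl2 buffer, then given 100 μM ATP plus 300 nM dT50 ssDNA with PK/LDH-coupled NADH oxidation. A340 followed for 30 min; rate slopes fitted with a four-parameter model for IC50.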

This passage reports IC50 results from US12509454B2, “Thiadiazolyl derivatives” (IDEAYA Biosciences, Inc., priority 2019, dated 2025).

Pol theta (1-899), sequence (O75417 1-899): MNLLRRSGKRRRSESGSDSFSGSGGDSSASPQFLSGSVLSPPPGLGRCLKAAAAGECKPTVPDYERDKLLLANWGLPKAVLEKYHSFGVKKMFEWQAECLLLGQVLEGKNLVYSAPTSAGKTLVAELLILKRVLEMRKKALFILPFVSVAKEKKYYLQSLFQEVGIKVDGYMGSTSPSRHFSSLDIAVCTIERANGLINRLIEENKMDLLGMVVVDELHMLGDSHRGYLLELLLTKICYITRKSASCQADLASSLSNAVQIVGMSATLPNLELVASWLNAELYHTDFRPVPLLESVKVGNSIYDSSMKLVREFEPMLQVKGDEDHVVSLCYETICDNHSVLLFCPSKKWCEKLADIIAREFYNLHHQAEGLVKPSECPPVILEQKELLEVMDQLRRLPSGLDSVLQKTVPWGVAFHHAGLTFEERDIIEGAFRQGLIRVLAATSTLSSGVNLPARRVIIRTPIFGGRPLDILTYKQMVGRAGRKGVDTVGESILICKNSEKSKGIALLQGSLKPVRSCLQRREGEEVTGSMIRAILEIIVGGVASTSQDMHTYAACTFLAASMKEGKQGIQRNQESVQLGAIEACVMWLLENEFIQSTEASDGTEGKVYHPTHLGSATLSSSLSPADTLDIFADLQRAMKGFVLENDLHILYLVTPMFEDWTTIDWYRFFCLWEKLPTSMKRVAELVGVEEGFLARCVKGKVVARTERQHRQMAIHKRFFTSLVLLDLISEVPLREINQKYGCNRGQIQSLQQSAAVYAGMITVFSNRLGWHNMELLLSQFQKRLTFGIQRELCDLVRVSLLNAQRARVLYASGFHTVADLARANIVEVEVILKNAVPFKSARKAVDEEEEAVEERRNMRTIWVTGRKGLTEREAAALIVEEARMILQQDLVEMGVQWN

As for `Cc1nn(C)cc1-c1cnccc1C(=O)Nc1nnc(OCc2ccc(Cl)cc2)s1` [Example 169, N-[5-[(4-chlorophenyl)methoxy]-1,3,4-thiadiazol-2-yl]-3-(1,3-dimethylpyrazol-4-yl)pyridine-4-carboxamide], the IC50 is no more than 200 nM. Consider `C[C@H]1COC[C@H](C)N1c1cnccc1C(=O)Nc1nnc(OCc2ccc(Cl)cn2)s1` [Example 187, N-(5-((5-chloropyridin-2-yl)methoxy)-1,3,4-thiadiazol-2-yl)-3-((3S,5S)-3,5-dimethylmorpholino)isonicotinamide], for which the IC50 is no more than 200 nM.

In the case of `O=C(Nc1nnc(OCc2ccc(Cl)cc2)s1)c1ccncc1N1CCCn2nccc21` [Example 142, N-[5-[(4-chlorophenyl)methoxy]-1,3,4-thiadiazol-2-yl]-3-[5H,6H,7H-pyrazolo[1,5-a]pyrimidin-4-yl]pyridine-4-carboxamide], the IC50 is no more than 200 nM. As for `Cc1cc(-c2c(F)cccc2OC(F)F)c(C(=O)Nc2nnc(OCc3ccc(Cl)cn3)s2)cn1` [Example 190, N-(5-((5-chloropyridin-2-yl)methoxy)-1,3,4-thiadiazol-2-yl)-4-(2-(difluoromethoxy)-6-fluorophenyl)-6-methylnicotinamide], the IC50 is no more than 200 nM. Under `COc1ccccc1-c1cc(CC#N)ncc1C(=O)Nc1nnc(OCc2ccc(Cl)cc2)s1` [Example 105, N-(5-((4-chlorobenzyl)oxy)-1,3,4-thiadiazol-2-yl)-6-(cyanomethyl)-4-(2-methoxyphenyl)nicotinamide] stands no more than 200 nM; under `COc1ccccc1-c1c(C(=O)Nc2nnc(OCc3ccc(Cl)cn3)s2)cnc(C)c1F` [Example 215, N-(5-((5-chloropyridin-2-yl)methoxy)-1,3,4-thiadiazol-2-yl)-5-fluoro-4-(2-methoxyphenyl)-6-methylnicotinamide], no more than 200 nM; under `COc1cccc(-n2cncc2C(=O)Nc2nnc(OCc3ccc(Cl)cc3)s2)c1` [Example 49, N-(5-((4-chlorobenzyl)oxy)-1,3,4-thiadiazol-2-yl)-1-(3-methoxyphenyl)-1H-imidazole-5-carboxamide], 500 to 1000 nM.

On to `COc1ccccc1-c1cc(C)ncc1C(=O)Nc1nnc(OCc2ccc(C3(C#N)CC3)cn2)s1` [Example 220, N-(5-[[5-(1-cyanocyclopropyl)pyridin-2-yl]methoxy]-1,3,4-thiadiazol-2-yl)-4-(2-methoxyphenyl)-6-methylpyridine-3-carboxamide], for which the IC50 was no more than 200 nM. Under `Cc1cn[nH]c1-c1cnccc1C(=O)Nc1nnc(OCc2ccc(Cl)cc2)s1` [Example 118, N-(5-((4-chlorobenzyl)oxy)-1,3,4-thiadiazol-2-yl)-3-(4-methyl-1H-pyrazol-5-yl)isonicotinamide] stands 200 to 500 nM; under `O=C1COc2c(cccc2-c2cnccc2C(=O)Nc2nnc(OCc3ccc(Cl)cc3)s2)N1` [Example 120, N-(5-((4-chlorobenzyl)oxy)-1,3,4-thiadiazol-2-yl)-3-(3-oxo-3,4-dihydro-2H-benzo[b][1,4]oxazin-8-yl)isonicotinamide], no more than 200 nM. With `N#Cc1ccc(C(=O)Nc2nnc(OCc3ccc(Cl)cn3)s2)c(N2CCOCC2)n1` [Example 32], the half-maximal inhibitory concentration (IC50) lay in the range of 200 to 500 nM. For `O=C(Nc1nnc(OCc2ccc(Cl)cc2)s1)c1ccncc1-c1cccc2[nH]ncc12` [Example 119, N-(5-((4-chlorobenzyl)oxy)-1,3,4-thiadiazol-2-yl)-3-(1H-indazol-4-yl)isonicotinamide], the IC50 was no more than 200 nM. With `COc1ccccc1-c1cc(C#N)ncc1C(=O)Nc1nnc(OCCC2CC2)s1` [Example 154, 6-cyano-N-(5-(2-cyclopropylethoxy)-1,3,4-thiadiazol-2-yl)-4-(2-methoxyphenyl)nicotinamide], the IC50 is no more than 200 nM. As to `Cn1cc(-c2ccncc2C(=O)Nc2nnc(OCc3ccc(Cl)cc3)s2)ccc1=O` [Example 122, N-(5-((4-chlorobenzyl)oxy)-1,3,4-thiadiazol-2-yl)-1-methyl-6-oxo-1,6-dihydro-[3,4′-bipyridine]-3′-carboxamide], the 50% inhibitory concentration (IC50) is no more than 200 nM. Regarding `N#Cc1ccc(C(=O)Nc2nnc(OCc3ccc(Br)cc3)s2)c(N2CCOC3(CC3)C2)n1` [Example 85, N-(5-((4-bromobenzyl)oxy)-1,3,4-thiadiazol-2-yl)-6-cyano-2-(4-oxa-7-azaspiro[2.5]octan-7-yl)nicotinamide], the IC50 was no more than 200 nM. Regarding `Cc1cc(-c2cccc3c2OCCN3)c(C(=O)Nc2nnc(OCc3ccc(Cl)cn3)s2)cn1` [Example 198, N-(5-((5-chloropyridin-2-yl)methoxy)-1,3,4-thiadiazol-2-yl)-4-(3,4-dihydro-2H-benzo[b][1,4]oxazin-8-yl)-6-methylnicotinamide], the IC50 was no more than 200 nM.

Consider `COc1ccccc1-c1ncccc1C(=O)Nc1nnc(OCc2ccc(Cl)cc2)s1` [Example 67, N-(5-((4-chlorobenzyl)oxy)-1,3,4-thiadiazol-2-yl)-2-(2-methoxyphenyl)nicotinamide], for which the IC50 was in the range of 1000 to 10000 nM.

`C[C@@H]1COCCN1c1ncccc1C(=O)Nc1nnc(OCc2ccc(Cl)cc2)s1` [Example 9, (R)—N-(5-((4-chlorobenzyl)oxy)-1,3,4-thiadiazol-2-yl)-2-(3-methylmorpholino)nicotinamide]: the IC50 is 200 to 500 nM. Under `COc1ccccc1-c1cc(C)ncc1C(=O)Nc1nnc(OCc2ccc(F)cn2)s1` [Example 221, N-[5-[(5-fluoropyridin-2-yl)methoxy]-1,3,4-thiadiazol-2-yl]-4-(2-methoxyphenyl)-6-methylpyridine-3-carboxamide] stands no more than 200 nM. Under `COc1ccccc1-c1cc(C2CC2)ncc1C(=O)Nc1nnc(OCc2ccc(Cl)cn2)s1` [Example 216, N-[5-[(5-chloropyridin-2-yl)methoxy]-1,3,4-thiadiazol-2-yl]-6-cyclopropyl-4-(2-methoxyphenyl)pyridine-3-carboxamide] stands no more than 200 nM; under `O=C(Nc1nnc(OCc2ccc(Cl)cc2)s1)c1cnccc1N1CCN(CCN2CCOCC2)C(=O)C1` [Example 83, N-[5-[(4-chlorophenyl)methoxy]-1,3,4-thiadiazol-2-yl]-4-[4-[2-(morpholin-4-yl)ethyl]-3-oxopiperazin-1-yl]pyridine-3-carboxamide], 500 to 1000 nM; under `CC1CN(c2ncccc2C(=O)Nc2nnc(OCc3ccc(Cl)cc3)s2)CC(=O)N1` (racemic) [Example 46, (R) N-(5-((4-chlorobenzyl)oxy)-1,3,4-thiadiazol-2-yl)-2-(3-methyl-5-oxopiperazin-1-yl)nicotinamide and (S) N-(5-((4-chlorobenzyl)oxy)-1,3,4-thiadiazol-2-yl)-2-(3-methyl-5-oxopiperazin-1-yl)nicotinamide], 200 to 500 nM. Under `COc1cc(-c2ccccc2OC)c(C(=O)Nc2nnc(OCc3ccc(Cl)cn3)s2)cn1` [Example 222, N-(5-((5-chloropyridin-2-yl)methoxy)-1,3,4-thiadiazol-2-yl)-6-methoxy-4-(2-methoxyphenyl)nicotinamide] stands no more than 200 nM; under `COc1ccccc1-c1ccncc1C(=O)Nc1nnc(OCc2ccc(Cl)cc2)s1` [Example 77, N-[5-[(4-chlorophenyl)methoxy]-1,3,4-thiadiazol-2-yl]-4-(2-methoxyphenyl)pyridine-3-carboxamide], no more than 200 nM. As for `COc1ccccc1-c1cnccc1C(=O)Nc1nnc(OCc2ccc(Cl)c(Cl)c2)s1` [Example 158, N-[5-[(3,4-dichlorophenyl)methoxy]-1,3,4-thiadiazol-2-yl]-3-(2-methoxyphenyl)pyridine-4-carboxamide], the 50% inhibitory concentration (IC50) was no more than 200 nM. For the compound `O=C(Nc1nnc(OCc2ccc(Cl)cc2)s1)c1cc(C#CCO)ncc1-c1ccccc1OC(F)F` [Example 147, N-[5-[(4-chlorophenyl)methoxy]-1,3,4-thiadiazol-2-yl]-5-[2-(difluoromethoxy)phenyl]-2-(3-hydroxyprop-1-yn-1-yl)pyridine-4-carboxamide], the IC50 was no more than 200 nM.

`CC1CNC(=O)CN1c1ncccc1C(=O)Nc1nnc(OCc2ccc(Cl)cc2)s1` (racemic) [Example 60, (R) N-(5-((4-chlorobenzyl)oxy)-1,3,4-thiadiazol-2-yl)-2-(2-methyl-5-oxopiperazin-1-yl)nicotinamide and (S) N-(5-((4-chlorobenzyl)oxy)-1,3,4-thiadiazol-2-yl)-2-(2-methyl-5-oxopiperazin-1-yl)nicotinamide]: the IC50 was no more than 200 nM.

As for `O=C(Nc1nnc(OCc2ccc(Cl)cn2)s1)c1cccnc1-c1ccccc1Cl` [Example 51, 2-(2-chlorophenyl)-N-[5-[(5-chloropyridin-2-yl)methoxy]-1,3,4-thiadiazol-2-yl]pyridine-3-carboxamide], the IC50 fell in the range of 1000 to 10000 nM. In the case of `O=C(Nc1nnc(OCc2ccc(Cl)cc2)s1)c1cncnc1N1CCOCC1` [Example 13, N-(5-((4-chlorobenzyl)oxy)-1,3,4-thiadiazol-2-yl)-4-morpholinopyrimidine-5-carboxamide], the IC50 fell in the range of 200 to 500 nM. Under `C[C@H]1COC[C@H](C)N1c1cnccc1C(=O)Nc1nnc(OCc2ccc(Cl)cc2)s1` [Example 110, N-(5-((4-chlorobenzyl)oxy)-1,3,4-thiadiazol-2-yl)-3-((3S,5S)-3,5-dimethylmorpholino)isonicotinamide] stands no more than 200 nM; under `COc1cc(F)ccc1-c1ccncc1C(=O)Nc1nnc(OCc2ccc(Cl)cc2)s1` [Example 155, N-[5-[(4-chlorophenyl)methoxy]-1,3,4-thiadiazol-2-yl]-4-(4-fluoro-2-methoxyphenyl)pyridine-3-carboxamide], no more than 200 nM. For the compound `COc1ccccc1-c1cnncc1C(=O)Nc1nnc(OCc2ccc(Cl)cn2)s1` [Example 106, N-(5-((5-chloropyridin-2-yl)methoxy)-1,3,4-thiadiazol-2-yl)-5-(2-methoxyphenyl)pyridazine-4-carboxamide], the IC50 is no more than 200 nM.
